# From ChEMBL document CHEMBL4007454 (J Med Chem, 2017)
# How the values were obtained:
# [1] = tested on: MDR1 (human); assay: Apparent permeability in pig LLC-PK1 cells expressing human MDR1; type: ADME, cell-based, Sus scrofa
# [2] = molecular target: T1, Leucine-rich repeat serine/threonine-protein kinase 2 (Homo sapiens, UniProt Q5S007, G2019S); assay: Inhibition of recombinant human GST-tagged LRRK2 (970 to 2527 residues) G2019S mutant expressed in baculovirus using fluorescein-ERM as substrate preincubated for 30 mins followed by substrate addition measured after 1 hr by TR-FRET assay
# [3] = Efflux ratio of permeability […] in pig LLC-PK1 cells expressing rat MDR1; type: ADME, cell-based, Sus scrofa
# [4] = Efflux ratio of permeability […] in pig LLC-PK1 cells expressing human MDR1; type: ADME, cell-based, Sus scrofa
# [5] = molecular target: Leucine-rich repeat serine/threonine-protein kinase 2 (Homo sapiens, UniProt Q5S007); assay: Inhibition of wild type human recombinant LRRK2 expressed in baculovirus using fluorescein-ERM as substrate preincubated for 30 mins followed by substrate addition measured after 1 hr by TR-FRET assay
# [6] = tested on: Plasma; assay: Unbound plasma concentration in rat at 5 mg/kg, ip; type: ADME, organism-based; details: in vivo
# [7] = tested on: Cerebrospinal fluid; assay: Drug level in rat Cerebrospinal fluid at 5 mg/kg, ip; type: ADME, organism-based; details: in vivo, read-out: Drug uptake
# [8] = Intrinsic clearance in rat hepatocytes assessed per million cells at 1 uM after 180 mins by LC-MS/MS analysis; type: ADME, cell-based, Hepatocyte; details: read-out: CLH
# [9] = molecular target: T1, Leucine-rich repeat serine/threonine-protein kinase 2; assay: Inhibition of recombinant human GST-tagged LRRK2 (970 to 2527 residues) G2019S mutant expressed in baculovirus using fluorescein-ERM as substrate preincubated for 30 mins followed by substrate addition measured after 1 hr in presence of 5 mM ATP by TR-FRET assay
# [10] = Intrinsic clearance in human hepatocytes assessed per million cells at 1 uM after 180 mins by LC-MS/MS analysis; type: ADME, cell-based, Hepatocyte; details: read-out: CLH
# [11] = molecular target: T1, Leucine-rich repeat serine/threonine-protein kinase 2; assay: Inhibition LRRK2 G2019S mutant Ser935 phosphorylation in human SH-SY5Y cells after 90 mins by Western blot analysis; type: cell-based
# [12] = molecular target: Mitogen-activated protein kinase 1 (Homo sapiens) (UniProt P28482); assay: Inhibition of recombinant human full length GST-tagged ERK2 expressed in Escherichia coli at 1 uM
# [13] = Half life in Han-Wistar rat at 2 mg/kg, iv measured after 2 to 480 mins by LC-MS/MS analysis; type: ADME, organism-based; details: in vivo
# [14] = AUC (0 to 8 hrs) in Han-Wistar rat at 2 mg/kg, iv measured after 2 to 480 mins by LC-MS/MS analysis; type: ADME, organism-based; design: time < 8 hr, dose 2 mg/kg, route intravenous; details: in vivo
# [15] = molecular target: T2, Dual specificity protein kinase TTK (Homo sapiens) (UniProt P33981); assay: Inhibition of recombinant human full length GST-tagged TTK expressed in baculovirus; details: concentration not given here
# T2 sequence (whole entry): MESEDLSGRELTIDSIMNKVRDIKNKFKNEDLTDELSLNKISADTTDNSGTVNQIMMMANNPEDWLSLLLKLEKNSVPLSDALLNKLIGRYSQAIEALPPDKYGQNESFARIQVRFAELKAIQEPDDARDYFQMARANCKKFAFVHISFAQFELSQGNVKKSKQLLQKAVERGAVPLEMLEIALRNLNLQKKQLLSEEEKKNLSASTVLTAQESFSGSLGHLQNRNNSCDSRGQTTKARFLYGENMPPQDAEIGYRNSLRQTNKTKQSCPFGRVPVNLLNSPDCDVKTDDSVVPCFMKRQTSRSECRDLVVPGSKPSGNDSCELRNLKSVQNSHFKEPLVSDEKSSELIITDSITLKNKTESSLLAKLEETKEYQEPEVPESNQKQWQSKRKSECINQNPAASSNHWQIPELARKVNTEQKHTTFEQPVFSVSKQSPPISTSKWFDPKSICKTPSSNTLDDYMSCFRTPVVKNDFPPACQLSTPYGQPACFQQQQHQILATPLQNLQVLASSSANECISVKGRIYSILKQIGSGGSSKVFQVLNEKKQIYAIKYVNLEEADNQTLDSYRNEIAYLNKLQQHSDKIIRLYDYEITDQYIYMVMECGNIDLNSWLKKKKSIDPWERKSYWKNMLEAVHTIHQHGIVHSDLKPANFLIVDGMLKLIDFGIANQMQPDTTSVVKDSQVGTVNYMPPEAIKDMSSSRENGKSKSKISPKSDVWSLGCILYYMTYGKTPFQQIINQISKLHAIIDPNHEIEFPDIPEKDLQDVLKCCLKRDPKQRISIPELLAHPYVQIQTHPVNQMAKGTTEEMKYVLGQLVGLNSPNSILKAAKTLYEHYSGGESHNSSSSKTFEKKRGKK
# T1 sequence (Q5S007 whole entry G2019S, the tested form may be a part): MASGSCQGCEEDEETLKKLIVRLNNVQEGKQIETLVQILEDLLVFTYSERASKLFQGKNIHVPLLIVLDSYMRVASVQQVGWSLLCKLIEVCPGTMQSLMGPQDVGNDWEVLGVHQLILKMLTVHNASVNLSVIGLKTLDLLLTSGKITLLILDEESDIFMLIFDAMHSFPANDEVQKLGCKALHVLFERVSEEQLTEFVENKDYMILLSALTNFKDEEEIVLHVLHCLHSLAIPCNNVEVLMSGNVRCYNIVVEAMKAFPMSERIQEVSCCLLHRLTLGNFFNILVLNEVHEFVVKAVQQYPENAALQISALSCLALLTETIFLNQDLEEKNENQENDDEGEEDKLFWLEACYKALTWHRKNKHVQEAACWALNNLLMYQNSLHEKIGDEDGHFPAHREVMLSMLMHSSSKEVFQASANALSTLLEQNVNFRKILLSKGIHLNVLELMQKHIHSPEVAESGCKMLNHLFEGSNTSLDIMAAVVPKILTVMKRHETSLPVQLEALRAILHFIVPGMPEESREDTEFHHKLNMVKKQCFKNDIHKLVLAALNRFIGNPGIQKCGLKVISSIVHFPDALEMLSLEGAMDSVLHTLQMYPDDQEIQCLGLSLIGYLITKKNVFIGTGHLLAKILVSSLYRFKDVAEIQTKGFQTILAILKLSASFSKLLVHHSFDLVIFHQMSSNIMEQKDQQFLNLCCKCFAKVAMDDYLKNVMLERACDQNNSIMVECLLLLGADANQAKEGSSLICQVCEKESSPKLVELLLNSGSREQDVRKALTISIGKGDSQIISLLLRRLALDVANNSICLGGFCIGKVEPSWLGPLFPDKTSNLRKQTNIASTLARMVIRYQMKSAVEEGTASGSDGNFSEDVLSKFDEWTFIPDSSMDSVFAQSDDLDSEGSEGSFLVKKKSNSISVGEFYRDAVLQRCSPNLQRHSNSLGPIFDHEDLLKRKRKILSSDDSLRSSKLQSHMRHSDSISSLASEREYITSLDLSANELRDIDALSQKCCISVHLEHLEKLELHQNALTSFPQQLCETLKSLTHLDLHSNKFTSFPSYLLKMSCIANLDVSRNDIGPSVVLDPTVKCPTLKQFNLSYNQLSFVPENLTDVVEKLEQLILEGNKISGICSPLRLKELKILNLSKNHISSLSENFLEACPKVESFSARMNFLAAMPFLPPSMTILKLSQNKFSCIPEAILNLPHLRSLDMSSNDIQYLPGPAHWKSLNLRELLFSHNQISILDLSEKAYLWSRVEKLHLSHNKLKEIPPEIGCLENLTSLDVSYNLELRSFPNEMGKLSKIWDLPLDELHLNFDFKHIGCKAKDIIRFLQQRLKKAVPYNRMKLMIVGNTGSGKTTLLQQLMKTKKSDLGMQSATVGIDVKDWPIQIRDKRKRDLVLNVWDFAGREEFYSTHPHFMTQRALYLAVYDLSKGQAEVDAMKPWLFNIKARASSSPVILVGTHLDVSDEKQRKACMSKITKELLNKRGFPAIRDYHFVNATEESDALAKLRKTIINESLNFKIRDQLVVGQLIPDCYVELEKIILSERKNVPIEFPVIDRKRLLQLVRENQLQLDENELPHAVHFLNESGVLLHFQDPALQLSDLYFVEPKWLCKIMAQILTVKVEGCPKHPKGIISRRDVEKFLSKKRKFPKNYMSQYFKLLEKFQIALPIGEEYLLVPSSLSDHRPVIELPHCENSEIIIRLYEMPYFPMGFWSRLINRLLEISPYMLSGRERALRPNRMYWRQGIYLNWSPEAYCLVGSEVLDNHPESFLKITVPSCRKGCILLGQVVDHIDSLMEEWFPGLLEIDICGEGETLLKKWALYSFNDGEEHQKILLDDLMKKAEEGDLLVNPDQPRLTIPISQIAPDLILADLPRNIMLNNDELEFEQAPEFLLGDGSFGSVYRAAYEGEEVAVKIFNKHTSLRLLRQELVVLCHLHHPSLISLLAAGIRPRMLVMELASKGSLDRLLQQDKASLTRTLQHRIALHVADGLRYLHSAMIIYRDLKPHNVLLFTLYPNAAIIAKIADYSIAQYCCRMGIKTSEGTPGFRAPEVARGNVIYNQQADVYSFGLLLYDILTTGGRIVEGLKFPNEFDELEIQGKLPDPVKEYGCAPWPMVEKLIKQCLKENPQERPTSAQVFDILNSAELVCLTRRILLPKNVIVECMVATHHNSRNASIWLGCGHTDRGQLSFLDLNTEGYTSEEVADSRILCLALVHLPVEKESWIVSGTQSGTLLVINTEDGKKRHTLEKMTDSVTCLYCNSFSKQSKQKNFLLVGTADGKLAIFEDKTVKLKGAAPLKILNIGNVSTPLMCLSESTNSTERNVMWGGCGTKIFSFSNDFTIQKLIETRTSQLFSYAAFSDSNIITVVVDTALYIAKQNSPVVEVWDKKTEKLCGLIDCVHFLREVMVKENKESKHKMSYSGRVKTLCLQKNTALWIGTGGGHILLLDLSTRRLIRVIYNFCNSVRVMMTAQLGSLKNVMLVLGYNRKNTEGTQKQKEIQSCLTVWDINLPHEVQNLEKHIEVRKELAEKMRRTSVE
# Sequence of Leucine-rich repeat serine/threonine-protein kinase 2 (Homo sapiens, UniProt Q5S007) (Q5S007 whole entry): as the sequence (Q5S007 whole entry G2019S, the tested form may be a part) above, with S2019G counted along it
# Sequence of Mitogen-activated protein kinase 1 (Homo sapiens) (P28482 whole entry): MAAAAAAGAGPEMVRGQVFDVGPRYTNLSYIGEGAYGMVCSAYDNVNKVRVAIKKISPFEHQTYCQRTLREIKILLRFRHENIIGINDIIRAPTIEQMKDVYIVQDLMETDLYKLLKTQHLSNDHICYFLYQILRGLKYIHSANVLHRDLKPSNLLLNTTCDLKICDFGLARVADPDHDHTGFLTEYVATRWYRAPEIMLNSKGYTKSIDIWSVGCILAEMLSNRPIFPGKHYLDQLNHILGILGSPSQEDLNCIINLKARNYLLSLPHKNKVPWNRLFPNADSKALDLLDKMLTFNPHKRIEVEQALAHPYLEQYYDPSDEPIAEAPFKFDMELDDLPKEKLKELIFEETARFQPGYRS
Structure (SMILES),Papp [1] [×10⁻⁶ cm/s],IC50 [2] [nM],Ratio [3],Ratio [4],hepatocyte CLint at 1 µM [8] [µL/min/1e6 cells],hepatocyte CLint at 1 µM [10] [µL/min/1e6 cells],IC50 [11] [nM],further results
c1ccc2c(-c3ccnc(N4CCOCC4)c3)n[nH]c2c1,19,12,0.2,0.3,–,–,–,–
CN(c1cccc(S(C)(=O)=O)c1)c1ccc2[nH]nc(-c3ccncc3)c2c1,–,–,–,–,–,–,–,IC50 [5]: 44 nM; Cp(f) [6]: 42 nM; concentration [7]: 36 nM
CC(C)Oc1ccc2[nH]nc(-c3ccnc(N4CCN(C)C(=O)C4)c3)c2c1,38,–,15,3.2,38,16,59,IC50 [9]: 91 nM
c1cncc(-c2n[nH]c3ccccc23)c1,–,1230,–,–,–,–,–,–
c1cc(-c2n[nH]c3ccc(OC4CC4)cc23)cc(N2CCOCC2)n1,31,41,0.3,0.3,32,37,–,–
COc1ccc2[nH]nc(-c3ccnc(N4CCOCC4)c3)c2c1,33,15,0.4,0.2,28,23,–,–
C[C@H]1CN(c2cc(-c3n[nH]c4ccc(OC5(C)CC5)cc34)ncn2)CCO1,27,–,0.5,0.5,26,7,3.8,IC50 [9]: 76 nM
Nc1cc(-c2n[nH]c3ccc(Nc4ccccc4)cc23)ccn1,–,–,–,–,–,–,–,IC50 [5]: 728 nM
CC(C)Oc1ccc2[nH]nc(-c3ccnc(N4CCN(S(C)(=O)=O)CC4)c3)c2c1,29,–,0.6,0.4,32,7,83,IC50 [9]: 14 nM
CC(C)Oc1ccc2[nH]nc(-c3cc(N4CCOCC4)ncn3)c2c1,38,–,0.4,0.6,13,6,41,–
CC1(Oc2ccc3[nH]nc(-c4cc(N5CCOCC5)ncn4)c3c2)CC1,35,–,–,–,18,8,–,–
O=S(=O)(c1ccc2[nH]nc(-c3ccnc(N4CCOCC4)c3)c2c1)C1CC1,35,–,44,20,15,7.3,–,–
c1ccc(-c2n[nH]c3ccccc23)nc1,–,6190,–,–,–,–,–,–
c1ccc2c(-c3cncc(N4CCOCC4)c3)n[nH]c2c1,38,256,0.5,0.4,–,–,–,–
c1cc(-c2n[nH]c3ccc(C4CC4)cc23)cc(N2CCOCC2)n1,25,13,0.1,0.2,52,31,–,–
c1cnnc(-c2ccc3[nH]nc(-c4ccnc(N5CCOCC5)c4)c3c2)c1,32,–,38,16,6,10,–,–
Cn1cc(-c2ccc3[nH]nc(-c4ccnc(N5CCOCC5)c4)c3c2)cn1,38,–,6.3,1.5,31,7,–,–
CC1(Oc2ccc3[nH]nc(-c4cc(N5CCN(S(C)(=O)=O)CC5)ncn4)c3c2)CC1,30,2.2,12,2.2,10,–,7.6,–
N#Cc1ccc2[nH]nc(-c3ccnc(N4CCOCC4)c3)c2c1,34,64,1.3,0.7,–,–,–,–
CC(C)Oc1ccc2[nH]nc(-c3ccnc(N4CCOCC4)c3)c2c1,30,0.7,0.7,0.5,49,22,43,inhibition [12]: 41%; half-life [13]: 1 h; AUC(0-t) at 8 h [14]: 1 µM·h; inhibition [15]: 91%
CC(C)Oc1ccc2[nH]nc(-c3ccnc(N4C[C@@H](F)[C@H](F)C4)c3)c2c1,31,6.6,0.7,0.4,39,25,341,IC50 [9]: 128 nM
c1ccc2c(-c3ccncc3)n[nH]c2c1,–,904,–,–,–,–,–,–
CC(C)Oc1ccc2[nH]nc(-c3ccnc(N4CCN(C)CC4)c3)c2c1,27,0.8,1.7,0.6,36,7,52,–
C[C@@H]1CN(c2cc(-c3n[nH]c4ccc(OC5(C)CC5)cc34)ncn2)CCO1,28,2,0.4,0.3,15,7,5,IC50 [9]: 13 nM
CC(C)Oc1ccc2[nH]nc(-c3ccnc(N4CCC(n5cnnc5)CC4)c3)c2c1,46,–,41,40,19,2,194,IC50 [9]: 69 nM
c1ccc2c(-c3cc(N4CCOCC4)ncn3)n[nH]c2c1,–,–,–,–,30,9,–,–
COCCNc1cc(-c2n[nH]c3ccccc23)ccn1,–,98,–,–,–,–,–,–
